Test system: hemoglobin-haptoglobin complex
Test: Stability of hemoglobin (as hemoglobin-haptoglobin complex) in samples preserved at 37° C. in preservation solution containing 1 unit/L haptoglobin, Hb measured by latex agglutination method (Examples 1 to 7)
Parameters: species or system human
Conditions: arylboronic acid 15 mmol/L
Description: Preservation solutions were prepared with the addition of 40 mmol/L HEPES (pH 6.8), 0.1% BSA, 0.1% NaN3, 1 unit/L haptoglobin, and 0 to 100 mmol/L phenylboronic acid. Samples obtained by adding hemoglobin-added fecal specimens to the preservation solutions so that the fecal concentration would be 0.5% were preserved at 37° C. for 0, 7, 14, and 21 days. The fecal specimens were added with hemoglobin having an amount such that the hemoglobin concentration in the samples would be about 300 μg/L. Instead of the fecal specimens to which hemoglobin was added, samples containing no fecal specimens, in which hemoglobin was added to the preservation solutions so that the hemoglobin concentration in the samples would be 300 μg/L, were similarly preserved. The hemoglobin (Hb) concentrations (μg/L) in the preserved samples were measured by the latex agglutination method.
The concentrations of hemoglobin were measured using “OC-Hemodia (registered trademark) Auto III ‘EIKEN’” (available from EIKEN CHEMICAL CO., LTD.) as a measurement reagent and “OC-sensor DIANA” (available from EIKEN CHEMICAL CO., LTD.) as a measurement device. The above measurement reagent contains latex particles immobilizing an anti-human hemoglobin rabbit polyclonal antibody.
From the measured concentrations of hemoglobin, the recovery ratios (%) were calculated with respect to the hemoglobin concentrations immediately after the fecal specimens were added to the preservation solutions (i.e., concentrations 0 days after the fecal specimens were added).
(§1) For comparative examples, preservation solutions to which no arylboronic acid was added were prepared, and testing was conducted in the same manner.
(§2) The concentration of phenylboronic acid in the preservation solutions of Example 1 was fixed to 15 mmol/L, preservation solutions to which a sugar (sorbitol, sucrose, trehalose, glucose, fructose, or mannitol) was further added at 50 mmol/L or 100 mmol/L or preservation solutions to which no sugar was added were prepared, and testing was conducted in the same manner as in Example 1. For comparative examples, preservation solutions to which the phenylboronic acid and sugar were not added were prepared, and testing was conducted in the same manner.
Preservation solutions in which sorbitol, sucrose, trehalose, glucose, fructose, or mannitol was added at 100 mmol/L to the preservation solutions of Example 1 containing no phenylboronic acid were prepared, and testing was conducted in the same manner as in Example 1. For comparison, the same testing was conducted without adding these sugars.
as §2, with “sorbitol” for “a sugar (sorbitol, sucrose, trehalose, glucose, fructose, or mannitol)”, “was” for “was further”, “10 to 500” for “50”, “sucrose was added at 10 to 250” for “100”
as §1

[1] = Feces 1, sugar (if added) 100 mmol/L, 0 days at 37° C.
[2] = Feces 1, sugar (if added) 100 mmol/L, 7 days at 37° C.
[3] = Feces 1, sugar (if added) 100 mmol/L, 14 days at 37° C.
[4] = Feces 2, sugar (if added) 100 mmol/L, 0 days at 37° C.
[5] = Feces 2, sugar (if added) 100 mmol/L, 7 days at 37° C.
[6] = Feces 2, sugar (if added) 100 mmol/L, 14 days at 37° C.
[7] = Feces 3, sugar (if added) 100 mmol/L, 0 days at 37° C.
[8] = Feces 3, sugar (if added) 100 mmol/L, 7 days at 37° C.
[9] = Feces 3, sugar (if added) 100 mmol/L, 14 days at 37° C.
[10] = No feces, sugar (if added) 100 mmol/L, 0 days at 37° C.
[11] = No feces, sugar (if added) 100 mmol/L, 7 days at 37° C.
[12] = No feces, sugar (if added) 100 mmol/L, 14 days at 37° C.

Structure (SMILES): O=C(O)c1cccc(B(O)O)c1 [3C-PBA, 3-carboxyphenylboronic acid]
- Hb concentration [1]: 309 µg/L
- Recovery ratio with respect to Hb after 0 days [1]: 100%
- Hb concentration [2]: 249 µg/L
- Recovery ratio with respect to Hb after 0 days [2]: 81%
- Hb concentration [3]: 239 µg/L
- Recovery ratio with respect to Hb after 0 days [3]: 77%
- Hb concentration (Feces 1, 37° C., 0 days): 309 µg/L
- Recovery ratio with respect to Hb after 0 days (Feces 1, 37° C., 0 days): 100%
- Hb concentration (Feces 1, 37° C., 7 days): 249 µg/L
- Recovery ratio with respect to Hb after 0 days (Feces 1, 37° C., 7 days): 81%
- Hb concentration (Feces 1, 37° C., 14 days): 239 µg/L
- Recovery ratio with respect to Hb after 0 days (Feces 1, 37° C., 14 days): 77%
- Hb concentration [4]: 309 µg/L
- Recovery ratio with respect to Hb after 0 days [4]: 100%
- Hb concentration [5]: 264 µg/L
- Recovery ratio with respect to Hb after 0 days [5]: 85%
- Hb concentration [6]: 240 µg/L
- Recovery ratio with respect to Hb after 0 days [6]: 78%
- Hb concentration (Feces 2, 37° C., 0 days): 309 µg/L
- Recovery ratio with respect to Hb after 0 days (Feces 2, 37° C., 0 days): 100%
- Hb concentration (Feces 2, 37° C., 7 days): 264 µg/L
- Recovery ratio with respect to Hb after 0 days (Feces 2, 37° C., 7 days): 85%
- Hb concentration (Feces 2, 37° C., 14 days): 240 µg/L
- Recovery ratio with respect to Hb after 0 days (Feces 2, 37° C., 14 days): 78%
- Hb concentration [7]: 300 µg/L
- Recovery ratio with respect to Hb after 0 days [7]: 100%
- Hb concentration [8]: 213 µg/L
- Recovery ratio with respect to Hb after 0 days [8]: 71%
- Hb concentration [9]: 200 µg/L
- Recovery ratio with respect to Hb after 0 days [9]: 67%
- Hb concentration (Feces 3, 37° C., 0 days): 300 µg/L
- Recovery ratio with respect to Hb after 0 days (Feces 3, 37° C., 0 days): 100%
- Hb concentration (Feces 3, 37° C., 7 days): 213 µg/L
- Recovery ratio with respect to Hb after 0 days (Feces 3, 37° C., 7 days): 71%
- Hb concentration (Feces 3, 37° C., 14 days): 200 µg/L
- Recovery ratio with respect to Hb after 0 days (Feces 3, 37° C., 14 days): 67%
- Hb concentration [10]: 293 µg/L
- Recovery ratio with respect to Hb after 0 days [10]: 100%
- Hb concentration [11]: 281 µg/L
- Recovery ratio with respect to Hb after 0 days [11]: 96%
- Hb concentration [12]: 276 µg/L
- Recovery ratio with respect to Hb after 0 days [12]: 94%
- Hb concentration (No feces, 37° C., 0 days): 293 µg/L
- Recovery ratio with respect to Hb after 0 days (No feces, 37° C., 0 days): 100%
- Hb concentration (No feces, 37° C., 7 days): 281 µg/L
- Recovery ratio with respect to Hb after 0 days (No feces, 37° C., 7 days): 96%
- Hb concentration (No feces, 37° C., 14 days): 276 µg/L
- Recovery ratio with respect to Hb after 0 days (No feces, 37° C., 14 days): 94%

Structure (SMILES): OB(O)c1cccc(O)c1 [3H-PBA, 3-hydroxyphenylboronic acid]
- Hb concentration [1]: 327 µg/L
- Recovery ratio with respect to Hb after 0 days [1]: 100%
- Hb concentration [2]: 269 µg/L
- Recovery ratio with respect to Hb after 0 days [2]: 82%
- Hb concentration [3]: 268 µg/L
- Recovery ratio with respect to Hb after 0 days [3]: 82%
- Hb concentration (Feces 1, 37° C., 0 days): 327 µg/L
- Recovery ratio with respect to Hb after 0 days (Feces 1, 37° C., 0 days): 100%
- Hb concentration (Feces 1, 37° C., 7 days): 269 µg/L
- Recovery ratio with respect to Hb after 0 days (Feces 1, 37° C., 7 days): 82%
- Hb concentration (Feces 1, 37° C., 14 days): 268 µg/L
- Recovery ratio with respect to Hb after 0 days (Feces 1, 37° C., 14 days): 82%
- Hb concentration [4]: 326 µg/L
- Recovery ratio with respect to Hb after 0 days [4]: 100%
- Hb concentration [5]: 277 µg/L
- Recovery ratio with respect to Hb after 0 days [5]: 85%
- Hb concentration [6]: 264 µg/L
- Recovery ratio with respect to Hb after 0 days [6]: 81%
- Hb concentration (Feces 2, 37° C., 0 days): 326 µg/L
- Recovery ratio with respect to Hb after 0 days (Feces 2, 37° C., 0 days): 100%
- Hb concentration (Feces 2, 37° C., 7 days): 227 µg/L
- Recovery ratio with respect to Hb after 0 days (Feces 2, 37° C., 7 days): 85%
- Hb concentration (Feces 2, 37° C., 14 days): 264 µg/L
- Recovery ratio with respect to Hb after 0 days (Feces 2, 37° C., 14 days): 81%
- Hb concentration [7]: 313 µg/L
- Recovery ratio with respect to Hb after 0 days [7]: 100%
- Hb concentration [8]: 213 µg/L
- Recovery ratio with respect to Hb after 0 days [8]: 68%
- Hb concentration [9]: 206 µg/L
- Recovery ratio with respect to Hb after 0 days [9]: 66%
- Hb concentration (Feces 3, 37° C., 0 days): 313 µg/L
- Recovery ratio with respect to Hb after 0 days (Feces 3, 37° C., 0 days): 100%
- Hb concentration (Feces 3, 37° C., 7 days): 213 µg/L
- Recovery ratio with respect to Hb after 0 days (Feces 3, 37° C., 7 days): 68%
- Hb concentration (Feces 3, 37° C., 14 days): 206 µg/L
- Recovery ratio with respect to Hb after 0 days (Feces 3, 37° C., 14 days): 66%
- Hb concentration [10]: 303 µg/L
- Recovery ratio with respect to Hb after 0 days [10]: 100%
- Hb concentration [11]: 294 µg/L
- Recovery ratio with respect to Hb after 0 days [11]: 97%
- Hb concentration [12]: 296 µg/L
- Recovery ratio with respect to Hb after 0 days [12]: 98%
- Hb concentration (No feces, 37° C., 0 days): 303 µg/L
- Recovery ratio with respect to Hb after 0 days (No feces, 37° C., 0 days): 100%
- Hb concentration (No feces, 37° C., 7 days): 294 µg/L
- Recovery ratio with respect to Hb after 0 days (No feces, 37° C., 7 days): 97%
- Hb concentration (No feces, 37° C., 14 days): 296 µg/L
- Recovery ratio with respect to Hb after 0 days (No feces, 37° C., 14 days): 98%
